Source: PubChem BioAssay (NCI)
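Five compound concentrations were applied to cells in 96-well plates for 48 hours; endpoints were derived by simple linear interpolation of the resulting dose-response curve. Here, GI50 denotes the concentration required for 50% inhibition of growth. TGI: concentration producing complete growth inhibition.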

Key:
Assay in all cases: DTP human tumour cell line panel, 48 h
SK-MEL-5 melanoma = test system: SK-MEL-5 melanoma
MALME-3M melanoma = test system: MALME-3M melanoma
MDA-MB-231 breast = test system: MDA-MB-231 breast
SF-268 CNS = test system: SF-268 CNS
HOP-92 NSCLC = test system: HOP-92 NSCLC
U251 CNS = test system: U251 CNS
SK-MEL-28 melanoma = test system: SK-MEL-28 melanoma
IGROV1 ovarian = test system: IGROV1 ovarian
HCT-116 colon = test system: HCT-116 colon
MOLT-4 leukemia = test system: MOLT-4 leukemia
786-0 renal = test system: 786-0 renal
SK-OV-3 ovarian = test system: SK-OV-3 ovarian
SN12C renal = test system: SN12C renal

Structure (SMILES)	TGI (SK-MEL-5 melanoma) [µM]	TGI (MALME-3M melanoma) [µM]	TGI (MDA-MB-231 breast) [µM]	TGI (SF-268 CNS) [µM]	TGI (HOP-92 NSCLC) [µM]	TGI (U251 CNS) [µM]	TGI (SK-MEL-28 melanoma) [µM]	TGI (IGROV1 ovarian) [µM]	TGI (HCT-116 colon) [µM]	TGI (MOLT-4 leukemia) [µM]	TGI (786-0 renal) [µM]	TGI (SK-OV-3 ovarian) [µM]	TGI (SN12C renal) [µM]	GI50 (HCT-116 colon) [µM]
COC(=O)C1CCC(=S)N1C(=O)OCc1ccccc1 (centres undefined)	> 100	> 100	> 100	> 100	> 100	> 100	> 100	> 100	> 100	> 100	> 100	> 100	–	–
NNC(=O)CC(=O)Nc1cccc(Cl)c1	> 100	> 100	> 100	> 100	> 100	> 100	> 100	> 100	> 100	> 100	> 100	> 100	> 100	–
Cc1cc(Cl)nc2nc(Cl)c(N)cc12	24.6	29.3	11.5	3.5	4.46	4.3	6.21	22.9	5.92	> 22.6	10.5	37.8	3.21	–
N#CC1(C#N)NC(c2ccccc2)C(C#N)(C#N)NC1c1ccccc1 (centres undefined)	> 100	> 100	> 100	> 100	> 100	> 100	> 100	> 100	> 100	> 100	> 100	> 100	> 100	–
Nc1ccc2[nH]c(-c3cccc(C(F)(F)F)c3)cc(=O)c2c1	> 100	> 100	> 100	–	> 100	> 100	> 100	> 100	> 100	> 100	> 100	> 100	> 100	52
COC(=O)/C=C\C(C#N)(C#N)N=Cc1cccc(OC)c1	31.4	4.37	29	33.4	7.29	32.2	29.4	24	7.14	17.7	13.7	47.1	27.1	–
O=C1c2ccccc2C(=O)N1CCSCC(CO)SCCN1C(=O)c2ccccc2C1=O (centres undefined)	> 100	> 100	> 100	> 100	> 100	> 100	> 100	> 100	> 100	> 100	> 100	> 100	> 100	–
COc1cccc(/C=N/NC(=O)CSCC(=O)N/N=C/c2cccc(OC)c2OC)c1OC	> 100	> 100	> 100	> 100	> 100	> 100	> 100	> 100	> 100	> 100	> 100	> 100	> 100	–
COc1cc(-c2nc3ccc(N4CCN(C)CC4)cc3[nH]2)c(OC)c2[nH]c(COC(C)=O)nc12	> 100	63.8	> 100	> 100	> 100	> 100	> 100	> 100	> 100	> 100	> 100	> 100	> 100	–
COC(=O)C1Cc2ccc(O)c(O)c2CN1 (centres undefined)	28.5	98.7	43.3	–	86.7	31.2	31	> 100	52.6	58.7	31.8	> 100	30	–
CCOC(=O)C(NC(=O)c1ccccc1)(Nc1ccc(S(=O)(=O)Nc2ncccn2)cc1)C(F)(F)F (centres undefined)	> 100	> 100	> 100	> 100	> 100	> 100	> 100	> 100	> 100	> 100	> 100	> 100	> 100	–
O=C(Cc1ccccc1F)NC1=C(Cl)C(=O)c2ccccc2C1=O	4.37	5	13.8	15.1	2.49	4.67	9.6	9.25	5.12	6.47	9.68	13.7	16.8	–
COCCN(CCNC(=O)c1cccc2c(N)c3cccc(C)c3nc12)CCOC	2.65	1.96	5.43	2.3	> 57.7	> 63.6	> 41.1	7.25	–	2.38	8.62	42.1	6.54	–
COc1ccc(OC)c(NCC(=O)Nn2cnc3ccc(S(=O)(=O)Nc4cc(OC)ccc4OC)cc3c2=O)c1	–	> 100	> 100	> 100	> 100	> 100	> 100	> 100	> 100	> 100	> 100	> 100	> 100	–
CCOC(=O)c1nc2ccc(C(F)(F)F)cc2nc1Nc1cc(OC)c(OC)c(OC)c1	> 100	> 100	> 100	> 100	> 100	–	> 100	> 100	> 100	> 100	> 100	> 100	> 100	–
Clc1cccc(-c2sc(-c3ccsc3)cc2Cc2ccsc2)c1	> 10	> 10	> 10	> 10	> 10	–	> 10	> 10	–	> 10	> 10	> 10	> 10	–
CCNC(=O)c1cc(Cl)ccc1NC(=O)C12CC3CC(CC(C3)C1)C2	76.1	> 100	> 100	> 100	> 100	> 100	> 100	> 100	> 100	> 100	61	–	> 100	–
CCc1c2c(cc3c1CC1(C3)Cc3cc4c(c(C(=O)OC)c3C1)CCCC4)CCCC2 (centres undefined)	> 100	> 100	> 100	–	> 100	> 100	–	> 100	65.1	> 100	> 100	> 100	> 100	–
